{"source": "patent US8575382B2", "about": "“Low molecular weight pharmacological activity modulators” (“Ivy Pharm” LLC, priority 2009, dated 2013)", "test_system": "male rats with cytopenia", "assay": "Hemostimulating activity: general blood analysis of rats with cyclophosphane cytopenia", "assay_type": "in vivo", "conditions": "for hemostimulating effect (in words): rats with cyclophosphane cytopenia, summary of Tables 5-7; for ESR / Erythrocytes / Leukocytes / Lymphoctes / Reticulocytes / Segmented neutrophils / Thrombocytes / Lymphocytes: rats, acetylcysteine 9.5, lithium carbonate 3, aC-Li 10, Cu-aC-Li:aC-Li 10 mg/kg", "description": "The study was carried out on random-bred male white rats weighing 140-160 g, which were given a single subcutaneous injection of cyclophosphane in a dose of 100 mg/kg in physiological saline.\nNo. 3—animals which had received an injection of cyclophosphane and to which Cu-aC-Li:aC-Li in physiological saline was then administered in a dose of 10 mg/kg as a therapeutic means (amount of coordination compound 7.8×10^−8 M/kg);\nNo. 4—animals which had received an injection of cyclophosphane and to which aC-Li in physiological saline was then administered in a dose of 10 mg/kg as a therapeutic means;\nNo. 6—animals which had received an injection of cyclophosphane and to which acetylcysteine in physiological saline was then administered in a dose of 9.5 mg/kg as a therapeutic means (the amount of acetylcysteine was calculated on the basis of the proportion by weight of acetylcysteine (˜0.95) in 10 mg of […], which corresponds to 9.5 mg of the hydrogenated form of acetylcysteine).\nThe test preparations were administered on the third day after the administration of cyclophosphane.\nBlood for hematological investigations was taken from the caudal vein 3, 7 and 14 days after administration of CP. At the end of each series (3, 7 and 14 days), the experimental animals were euthanized by an overdose of ether and blood was obtained from the caudal vein and bone marrow from the femur.\nThis study assessed the cellularity of the blood (the number of erythrocytes, thrombocytes, leukocytes, lymphocytes and neutrophils, and also the ESR) and bone marrow on 7-day administration of the test compounds to hemodepressed animals.", "key": {"[1]": {"conditions": "day 3 after cyclophosphane 100 mg/kg"}, "[2]": {"conditions": "day 7 after cyclophosphane 100 mg/kg"}, "[3]": {"conditions": "day 14 after cyclophosphane 100 mg/kg"}}, "note": "Several values for one entry are separate records, joined by “and”; a condition that tells them apart may be missing. Identical values can stand only once. Marks after values point to notes of the source that are not given here.", "data": [{"smiles": "CC(=O)N[C@@H](CS)C(=O)O", "note": "[acetyl cysteine, acetylcysteine]", "values": [{"measurement": "hemostimulating effect (in words)", "result": "positive trends"}, {"measurement": "ESR", "setting": "[1]", "result": "2.2 ± 0.30", "unit": "mm/h"}, {"measurement": "Erythrocytes", "setting": "[1]", "result": "3.0 ± 0.29 10^12/l"}, {"measurement": "Leukocytes", "setting": "[1]", "result": "3.26 ± 0.31* 10^9/l"}, {"measurement": "Lymphoctes", "setting": "[1]", "result": "68 ± 2.8", "unit": "%"}, {"measurement": "Reticulocytes", "setting": "[1]", "result": "0.09 ± 0.006", "unit": "%"}, {"measurement": "Segmented neutrophils", "setting": "[1]", "result": "17.6 ± 2.1", "unit": "%"}, {"measurement": "Thrombocytes", "setting": "[1]", "result": "220 ± 45.3 10^9/l"}, {"measurement": "ESR", "setting": "[2]", "result": "1.9 ± 0.39", "unit": "mm/h"}, {"measurement": "Erythrocytes", "setting": "[2]", "result": "3.1 ± 0.33 10^12/l"}, {"measurement": "Leukocytes", "setting": "[2]", "result": "3.47 ± 0.08* 10^9/l"}, {"measurement": "Lymphocytes", "setting": "[2]", "result": "51.5 ± 1.3", "unit": "%"}, {"measurement": "Segmented neutrophils", "setting": "[2]", "result": "30 ± 1.8", "unit": "%"}, {"measurement": "Thrombocytes", "setting": "[2]", "result": "124 ± 11 10^9/L"}, {"measurement": "ESR", "setting": "[3]", "result": "2.1 ± 0.73", "unit": "mm/h"}, {"measurement": "Erythrocytes", "setting": "[3]", "result": "4.7 ± 0.21 10^12/l"}, {"measurement": "Leukocytes", "setting": "[3]", "result": "5.7 ± 0.22** 10^9/l"}, {"measurement": "Lymphocytes", "setting": "[3]", "result": "72.1 ± 1.6", "unit": "%"}, {"measurement": "Reticulocytes", "setting": "[3]", "result": "1.1 ± 0.4", "unit": "%"}, {"measurement": "Segmented neutrophils", "setting": "[3]", "result": "13.3 ± 1.9", "unit": "%"}]}, {"smiles": "CC(=O)N[C@@H](CS)C(=O)[O-].[Li+]", "note": "[aC—Li, lithium salt of acetylcysteine]", "values": [{"measurement": "hemostimulating effect (in words)", "result": "positive trends"}, {"measurement": "ESR", "setting": "[1]", "result": "3.3 ± 0.80", "unit": "mm/h"}, {"measurement": "Erythrocytes", "setting": "[1]", "result": "4.0 ± 0.23 10^12/l"}, {"measurement": "Leukocytes", "setting": "[1]", "result": "4.38 ± 0.31* 10^9/l"}, {"measurement": "Lymphoctes", "setting": "[1]", "result": "45 ± 1.6", "unit": "%"}, {"measurement": "Reticulocytes", "setting": "[1]", "result": "0.1 ± 0.1", "unit": "%"}, {"measurement": "Segmented neutrophils", "setting": "[1]", "result": "42 ± 1.6", "unit": "%"}, {"measurement": "Thrombocytes", "setting": "[1]", "result": "387 ± 17.4 10^9/l"}, {"measurement": "ESR", "setting": "[3]", "result": "2.7 ± 0.49", "unit": "mm/h"}, {"measurement": "Erythrocytes", "setting": "[3]", "result": "5.2 ± 0.26 10^12/l"}, {"measurement": "Leukocytes", "setting": "[3]", "result": "5.6 ± 0.22** 10^9/l"}, {"measurement": "Lymphocytes", "setting": "[3]", "result": "72.5 ± 1.4", "unit": "%"}, {"measurement": "Reticulocytes", "setting": "[3]", "result": "1.3 ± 0.3", "unit": "%"}, {"measurement": "Segmented neutrophils", "setting": "[3]", "result": "20.3 ± 2.4", "unit": "%"}, {"measurement": "Thrombocytes", "setting": "[3]", "result": "390 ± 38.3 10^3/l"}]}, {"smiles": "O=C([O-])[O-].[Li+].[Li+]", "note": "[Li2HCO3, lithium carbonate]", "values": [{"measurement": "hemostimulating effect (in words)", "result": "positive trends"}, {"measurement": "ESR", "setting": "[1]", "result": "2.4 ± 0.42", "unit": "mm/h"}, {"measurement": "Erythrocytes", "setting": "[1]", "result": "3.7 ± 0.21 10^12/l"}, {"measurement": "Leukocytes", "setting": "[1]", "result": "3.75 ± 0.46* 10^9/l"}, {"measurement": "Lymphoctes", "setting": "[1]", "result": "62 ± 3.8", "unit": "%"}, {"measurement": "Reticulocytes", "setting": "[1]", "result": "0.118 ± 0.01", "unit": "%"}, {"measurement": "Segmented neutrophils", "setting": "[1]", "result": "19.7 ± 3.4", "unit": "%"}, {"measurement": "Thrombocytes", "setting": "[1]", "result": "256 ± 45.3 10^9/l"}, {"measurement": "ESR", "setting": "[2]", "result": "2.0 ± 0.36 mm/h and 3.2 ± 0.80 mm/h"}, {"measurement": "Erythrocytes", "setting": "[2]", "result": "3.6 ± 0.29 10^12/l and 3.2 ± 0.18 10^12/l"}, {"measurement": "Leukocytes", "setting": "[2]", "result": "3.22 ± 0.11* 10^9/l and 4.8 ± 0.18** 10^9/l"}, {"measurement": "Reticulocytes", "setting": "[2]", "result": "1.1 ± 0.1% and 1.2 ± 0.2%"}, {"measurement": "Segmented neutrophils", "setting": "[2]", "result": "33 ± 1.7 % and 50.4 ± 0.6 %"}, {"measurement": "Thrombocytes", "setting": "[2]", "result": "119 ± 12.0** 10^3/l and 164 ± 10.0** 10^3/l"}, {"measurement": "ESR", "setting": "[3]", "result": "2.4 ± 0.65", "unit": "mm/h"}, {"measurement": "Erythrocytes", "setting": "[3]", "result": "4.9 ± 0.27 10^12/l"}, {"measurement": "Leukocytes", "setting": "[3]", "result": "5.9 ± 0.26** 10^9/l"}, {"measurement": "Lymphocytes", "setting": "[3]", "result": "69.3 ± 0.9", "unit": "%"}, {"measurement": "Reticulocytes", "setting": "[3]", "result": "1.4 ± 0.3", "unit": "%"}, {"measurement": "Segmented neutrophils", "setting": "[3]", "result": "14.9 ± 2.6", "unit": "%"}, {"measurement": "Thrombocytes", "setting": "[3]", "result": "401 ± 59.9 10^3/l"}]}]}
